Measured values published in the NIST ThermoML archive (doi:10.1021/je800481n).
Numbers after ± are expanded uncertainties.

How the values were obtained:
[1] = Boiling temperature at pressure P; settings: 101.3 kPa; Liquid; Ebulliometric method (Recirculating still)
[2] = refractive index (Na D-line) (dimensionless); settings: 101.3 kPa, Liquid, Standard Abbe refractometry

Boiling temperature at pressure P [1] [°C] | refractive index ([2]; 298.15 K) | refractive index ([2]; 301.15 K) | SMILES
165.62 ± 0.12 | 1.43507 ± 0.00051 |  | CC(=O)N(C)C [N,N-dimethylethanamide]
206.00 ± 0.12 |  | 1.42854 ± 0.00037 | CNC(C)=O [N-methylacetamide]
152.29 ± 0.12 | 1.48829 ± 0.00037 |  | CC(C)c1ccccc1 [isopropylbenzene]
